# From patent publication US11034650B2, “Compounds useful for treating a Mannheimia haemolytica or Histophilus somni infection” (Intervet Inc., priority 2016, dated 2021)
# Tested on: Mannheimia haemolytica MH 10720 (154, BRD field isolate)
# Experiment: MIC, broth-microdilution (CLSI VET01-A4), strain MH 10720
# Type: cell-based
# Conditions: Mannheimia haemolytica strain MH 10720, broth-microdilution; unit assumed
# Method in brief: (§1)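 The compound was titrated in twofold steps in microdilution trays. Absence of turbidity, checked without instruments, marked the MIC at the lowest such concentration.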
row,SMILES,MIC MH 10720
1,O=C(N[C@@H](CO)C(=O)NO)c1ccc(C#Cc2ccc(CNCc3cccnc3)cc2)cc1 [Compound 157],0.8 µg/mL
2,COc1ccc(CNCc2ccc(C#Cc3ccc(C(=O)N[C@H](C(=O)NO)C(C)(C)O)cc3)cc2)cc1 [Compound 224],≤ 0.1 µg/mL
3,CSC(C)(C)[C@H](NC(=O)c1ccc(C#Cc2ccc(CNC3CCC3)cc2)cc1)C(=O)NO [Compound 243],0.4 µg/mL
4,COCCNCc1ccc(C#Cc2ccc(C(=O)N[C@H](C(=O)NO)C(C)(C)SC)cc2)s1 [Compound 302],≤ 0.1 µg/mL
5,CSC(C)(C)[C@H](NC(=O)c1ccc(C#Cc2ccc(CNCc3ccncc3)nc2)cc1)C(=O)NO [Compound 341],0.2 µg/mL
6,CON=C(C)[C@H](NC(=O)c1ccc(C#Cc2ccc(CN3CCOCC3)cc2)cc1)C(=O)NO [Compound 381],0.4 µg/mL
7,CC(C)(O)[C@H](NC(=O)c1ccc(C#Cc2ccc(CNCc3cccnc3)cc2)cc1)C(=O)NO [Compound 228],≤ 0.1 µg/mL

# Tested on: Mannheimia haemolytica MH 13093 (XB0472-6014.1, BRD field isolate)
# Experiment: MIC, broth-microdilution (CLSI VET01-A4), strain MH 13093
# Type: cell-based
# Conditions: Mannheimia haemolytica strain MH 13093, broth-microdilution; unit assumed
# Method in brief: as §1
row,SMILES,MIC MH 13093
1,O=C(N[C@@H](CO)C(=O)NO)c1ccc(C#Cc2ccc(CNCc3cccnc3)cc2)cc1 [Compound 157],6.3 µg/mL
2,COc1ccc(CNCc2ccc(C#Cc3ccc(C(=O)N[C@H](C(=O)NO)C(C)(C)O)cc3)cc2)cc1 [Compound 224],0.8 µg/mL
3,CSC(C)(C)[C@H](NC(=O)c1ccc(C#Cc2ccc(CNC3CCC3)cc2)cc1)C(=O)NO [Compound 243],1.6 µg/mL
4,COCCNCc1ccc(C#Cc2ccc(C(=O)N[C@H](C(=O)NO)C(C)(C)SC)cc2)s1 [Compound 302],0.8 µg/mL
5,CSC(C)(C)[C@H](NC(=O)c1ccc(C#Cc2ccc(CNCc3ccncc3)nc2)cc1)C(=O)NO [Compound 341],1.6 µg/mL
6,CON=C(C)[C@H](NC(=O)c1ccc(C#Cc2ccc(CN3CCOCC3)cc2)cc1)C(=O)NO [Compound 381],1.6 µg/mL
7,CC(C)(O)[C@H](NC(=O)c1ccc(C#Cc2ccc(CNCc3cccnc3)cc2)cc1)C(=O)NO [Compound 228],0.8 µg/mL

# Tested on: Pasteurella multocida PM 10775 (080130003051, BRD field isolate)
# Experiment: MIC, broth-microdilution (CLSI VET01-A4), strain PM 10775
# Type: cell-based
# Conditions: Pasteurella multocida strain PM 10775, broth-microdilution; unit assumed
# Method in brief: as §1
row,SMILES,MIC PM 10775
1,O=C(N[C@@H](CO)C(=O)NO)c1ccc(C#Cc2ccc(CNCc3cccnc3)cc2)cc1 [Compound 157],≤ 0.1 µg/mL
2,COc1ccc(CNCc2ccc(C#Cc3ccc(C(=O)N[C@H](C(=O)NO)C(C)(C)O)cc3)cc2)cc1 [Compound 224],≤ 0.1 µg/mL
3,CSC(C)(C)[C@H](NC(=O)c1ccc(C#Cc2ccc(CNC3CCC3)cc2)cc1)C(=O)NO [Compound 243],≤ 0.1 µg/mL
4,COCCNCc1ccc(C#Cc2ccc(C(=O)N[C@H](C(=O)NO)C(C)(C)SC)cc2)s1 [Compound 302],≤ 0.1 µg/mL
5,CSC(C)(C)[C@H](NC(=O)c1ccc(C#Cc2ccc(CNCc3ccncc3)nc2)cc1)C(=O)NO [Compound 341],0.2 µg/mL
6,CON=C(C)[C@H](NC(=O)c1ccc(C#Cc2ccc(CN3CCOCC3)cc2)cc1)C(=O)NO [Compound 381],0.2 µg/mL
7,CC(C)(O)[C@H](NC(=O)c1ccc(C#Cc2ccc(CNCc3cccnc3)cc2)cc1)C(=O)NO [Compound 228],≤ 0.1 µg/mL

# Tested on: Mannheimia haemolytica MH 6374 (ATCC 33396, reference strain)
# Experiment: MIC, broth-microdilution (CLSI VET01-A4), strain MH 6374
# Type: cell-based
# Conditions: Mannheimia haemolytica strain MH 6374, broth-microdilution; unit assumed
# Method in brief: as §1
row,SMILES,MIC MH 6374
1,O=C(N[C@@H](CO)C(=O)NO)c1ccc(C#Cc2ccc(CNCc3cccnc3)cc2)cc1 [Compound 157],1.6 µg/mL
2,COc1ccc(CNCc2ccc(C#Cc3ccc(C(=O)N[C@H](C(=O)NO)C(C)(C)O)cc3)cc2)cc1 [Compound 224],0.8 µg/mL
3,CSC(C)(C)[C@H](NC(=O)c1ccc(C#Cc2ccc(CNC3CCC3)cc2)cc1)C(=O)NO [Compound 243],3.1 µg/mL
4,COCCNCc1ccc(C#Cc2ccc(C(=O)N[C@H](C(=O)NO)C(C)(C)SC)cc2)s1 [Compound 302],0.8 µg/mL
5,CSC(C)(C)[C@H](NC(=O)c1ccc(C#Cc2ccc(CNCc3ccncc3)nc2)cc1)C(=O)NO [Compound 341],1.6 µg/mL
6,CON=C(C)[C@H](NC(=O)c1ccc(C#Cc2ccc(CN3CCOCC3)cc2)cc1)C(=O)NO [Compound 381],3.1 µg/mL
7,CC(C)(O)[C@H](NC(=O)c1ccc(C#Cc2ccc(CNCc3cccnc3)cc2)cc1)C(=O)NO [Compound 228],0.4 µg/mL

# Tested on: Mannheimia haemolytica MH 6357 (M7/2, reference strain, cattle infection strain)
# Experiment: MIC, broth-microdilution (CLSI VET01-A4), strain MH 6357
# Type: cell-based
# Conditions: Mannheimia haemolytica strain MH 6357, broth-microdilution; unit assumed
# Method in brief: as §1
row,SMILES,MIC MH 6357
1,O=C(N[C@@H](CO)C(=O)NO)c1ccc(C#Cc2ccc(CNCc3cccnc3)cc2)cc1 [Compound 157],1.6 µg/mL
2,COc1ccc(CNCc2ccc(C#Cc3ccc(C(=O)N[C@H](C(=O)NO)C(C)(C)O)cc3)cc2)cc1 [Compound 224],0.8 µg/mL
3,CSC(C)(C)[C@H](NC(=O)c1ccc(C#Cc2ccc(CNC3CCC3)cc2)cc1)C(=O)NO [Compound 243],3.1 µg/mL
4,COCCNCc1ccc(C#Cc2ccc(C(=O)N[C@H](C(=O)NO)C(C)(C)SC)cc2)s1 [Compound 302],0.4 µg/mL
5,CSC(C)(C)[C@H](NC(=O)c1ccc(C#Cc2ccc(CNCc3ccncc3)nc2)cc1)C(=O)NO [Compound 341],0.8 µg/mL
6,CON=C(C)[C@H](NC(=O)c1ccc(C#Cc2ccc(CN3CCOCC3)cc2)cc1)C(=O)NO [Compound 381],1.6 µg/mL
7,CC(C)(O)[C@H](NC(=O)c1ccc(C#Cc2ccc(CNCc3cccnc3)cc2)cc1)C(=O)NO [Compound 228],0.8 µg/mL

# Tested on: Pasteurella multocida PM 6267 (P 2225 (L386), reference strain, mouse infection strain)
# Experiment: MIC, broth-microdilution (CLSI VET01-A4), strain PM 6267
# Type: cell-based
# Conditions: Pasteurella multocida strain PM 6267, broth-microdilution; unit assumed
# Method in brief: as §1
row,SMILES,MIC PM 6267
1,O=C(N[C@@H](CO)C(=O)NO)c1ccc(C#Cc2ccc(CNCc3cccnc3)cc2)cc1 [Compound 157],0.4 µg/mL
2,COc1ccc(CNCc2ccc(C#Cc3ccc(C(=O)N[C@H](C(=O)NO)C(C)(C)O)cc3)cc2)cc1 [Compound 224],≤ 0.1 µg/mL
3,CSC(C)(C)[C@H](NC(=O)c1ccc(C#Cc2ccc(CNC3CCC3)cc2)cc1)C(=O)NO [Compound 243],0.2 µg/mL
4,COCCNCc1ccc(C#Cc2ccc(C(=O)N[C@H](C(=O)NO)C(C)(C)SC)cc2)s1 [Compound 302],0.8 µg/mL
5,CSC(C)(C)[C@H](NC(=O)c1ccc(C#Cc2ccc(CNCc3ccncc3)nc2)cc1)C(=O)NO [Compound 341],1.6 µg/mL
6,CON=C(C)[C@H](NC(=O)c1ccc(C#Cc2ccc(CN3CCOCC3)cc2)cc1)C(=O)NO [Compound 381],1.6 µg/mL
7,CC(C)(O)[C@H](NC(=O)c1ccc(C#Cc2ccc(CNCc3cccnc3)cc2)cc1)C(=O)NO [Compound 228],≤ 0.1 µg/mL

# Tested on: Mannheimia haemolytica MH 13065 (XB0446-6003.9, BRD field isolate)
# Experiment: MIC, broth-microdilution (CLSI VET01-A4), strain MH 13065
# Type: cell-based
# Conditions: Mannheimia haemolytica strain MH 13065, broth-microdilution; unit assumed
# Method in brief: as §1
row,SMILES,MIC MH 13065
1,O=C(N[C@@H](CO)C(=O)NO)c1ccc(C#Cc2ccc(CNCc3cccnc3)cc2)cc1 [Compound 157],3.1 µg/mL
2,COc1ccc(CNCc2ccc(C#Cc3ccc(C(=O)N[C@H](C(=O)NO)C(C)(C)O)cc3)cc2)cc1 [Compound 224],0.8 µg/mL
3,CSC(C)(C)[C@H](NC(=O)c1ccc(C#Cc2ccc(CNC3CCC3)cc2)cc1)C(=O)NO [Compound 243],1.6 µg/mL
4,COCCNCc1ccc(C#Cc2ccc(C(=O)N[C@H](C(=O)NO)C(C)(C)SC)cc2)s1 [Compound 302],0.8 µg/mL
5,CSC(C)(C)[C@H](NC(=O)c1ccc(C#Cc2ccc(CNCc3ccncc3)nc2)cc1)C(=O)NO [Compound 341],1.6 µg/mL
6,CON=C(C)[C@H](NC(=O)c1ccc(C#Cc2ccc(CN3CCOCC3)cc2)cc1)C(=O)NO [Compound 381],1.6 µg/mL
7,CC(C)(O)[C@H](NC(=O)c1ccc(C#Cc2ccc(CNCc3cccnc3)cc2)cc1)C(=O)NO [Compound 228],0.4 µg/mL

# Tested on: Pasteurella multocida PM 6391 (ATCC 43137, reference strain)
# Experiment: MIC, broth-microdilution (CLSI VET01-A4), strain PM 6391
# Type: cell-based
# Conditions: Pasteurella multocida strain PM 6391, broth-microdilution; unit assumed
# Method in brief: as §1
row,SMILES,MIC PM 6391
1,O=C(N[C@@H](CO)C(=O)NO)c1ccc(C#Cc2ccc(CNCc3cccnc3)cc2)cc1 [Compound 157],0.8 µg/mL
2,COc1ccc(CNCc2ccc(C#Cc3ccc(C(=O)N[C@H](C(=O)NO)C(C)(C)O)cc3)cc2)cc1 [Compound 224],0.4 µg/mL
3,CSC(C)(C)[C@H](NC(=O)c1ccc(C#Cc2ccc(CNC3CCC3)cc2)cc1)C(=O)NO [Compound 243],0.8 µg/mL
4,COCCNCc1ccc(C#Cc2ccc(C(=O)N[C@H](C(=O)NO)C(C)(C)SC)cc2)s1 [Compound 302],0.8 µg/mL
5,CSC(C)(C)[C@H](NC(=O)c1ccc(C#Cc2ccc(CNCc3ccncc3)nc2)cc1)C(=O)NO [Compound 341],0.8 µg/mL
6,CON=C(C)[C@H](NC(=O)c1ccc(C#Cc2ccc(CN3CCOCC3)cc2)cc1)C(=O)NO [Compound 381],≤ 0.1 µg/mL
7,CC(C)(O)[C@H](NC(=O)c1ccc(C#Cc2ccc(CNCc3cccnc3)cc2)cc1)C(=O)NO [Compound 228],≤ 0.1 µg/mL

# Tested on: Pasteurella multocida PM 12080 (IV102277-0093, BRD field isolate)
# Experiment: MIC, broth-microdilution (CLSI VET01-A4), strain PM 12080
# Type: cell-based
# Conditions: Pasteurella multocida strain PM 12080, broth-microdilution; unit assumed
# Method in brief: as §1
row,SMILES,MIC PM 12080
1,O=C(N[C@@H](CO)C(=O)NO)c1ccc(C#Cc2ccc(CNCc3cccnc3)cc2)cc1 [Compound 157],0.8 µg/mL
2,COc1ccc(CNCc2ccc(C#Cc3ccc(C(=O)N[C@H](C(=O)NO)C(C)(C)O)cc3)cc2)cc1 [Compound 224],≤ 0.1 µg/mL
3,CSC(C)(C)[C@H](NC(=O)c1ccc(C#Cc2ccc(CNC3CCC3)cc2)cc1)C(=O)NO [Compound 243],0.4 µg/mL
4,COCCNCc1ccc(C#Cc2ccc(C(=O)N[C@H](C(=O)NO)C(C)(C)SC)cc2)s1 [Compound 302],0.4 µg/mL
5,CSC(C)(C)[C@H](NC(=O)c1ccc(C#Cc2ccc(CNCc3ccncc3)nc2)cc1)C(=O)NO [Compound 341],0.4 µg/mL
6,CON=C(C)[C@H](NC(=O)c1ccc(C#Cc2ccc(CN3CCOCC3)cc2)cc1)C(=O)NO [Compound 381],0.2 µg/mL
7,CC(C)(O)[C@H](NC(=O)c1ccc(C#Cc2ccc(CNCc3cccnc3)cc2)cc1)C(=O)NO [Compound 228],≤ 0.1 µg/mL

# Tested on: Mannheimia haemolytica MH 12587 (1071, BRD field isolate, macrolide-resistance: erm+, E+)
# Experiment: MIC, broth-microdilution (CLSI VET01-A4), strain MH 12587
# Type: cell-based
# Conditions: Mannheimia haemolytica strain MH 12587, broth-microdilution; unit assumed
# Method in brief: as §1
row,SMILES,MIC MH 12587
1,O=C(N[C@@H](CO)C(=O)NO)c1ccc(C#Cc2ccc(CNCc3cccnc3)cc2)cc1 [Compound 157],6.3 µg/mL
2,COc1ccc(CNCc2ccc(C#Cc3ccc(C(=O)N[C@H](C(=O)NO)C(C)(C)O)cc3)cc2)cc1 [Compound 224],1.6 µg/mL
3,CSC(C)(C)[C@H](NC(=O)c1ccc(C#Cc2ccc(CNC3CCC3)cc2)cc1)C(=O)NO [Compound 243],3.1 µg/mL
4,COCCNCc1ccc(C#Cc2ccc(C(=O)N[C@H](C(=O)NO)C(C)(C)SC)cc2)s1 [Compound 302],1.6 µg/mL
5,CSC(C)(C)[C@H](NC(=O)c1ccc(C#Cc2ccc(CNCc3ccncc3)nc2)cc1)C(=O)NO [Compound 341],3.1 µg/mL
6,CON=C(C)[C@H](NC(=O)c1ccc(C#Cc2ccc(CN3CCOCC3)cc2)cc1)C(=O)NO [Compound 381],1.6 µg/mL
7,CC(C)(O)[C@H](NC(=O)c1ccc(C#Cc2ccc(CNCc3cccnc3)cc2)cc1)C(=O)NO [Compound 228],1.6 µg/mL
